Source: ChEMBL document CHEMBL3632482, “Nitrogen Oxide Inhibitory Trimeric and Dimeric Carbazole Alkaloids from Murraya tetramera” (J Nat Prod, 2015)

Tests used:
[1] = Antiinflammatory activity in mouse BV2 cells assessed as inhibition of LPS-stimulated nitric oxide production after 24 hrs by Griess assay; format: functional, cell-based; details: BV-2, 24 h
[2] = Cytotoxicity against mouse BV2 cells assessed as effect on cell viability after 24 hrs by MTT assay; format: cell-based; details: bv-2, 24 h
[3] = Antiinflammatory activity in mouse BV2 cells assessed as inhibition of LPS-stimulated nitric oxide production at 40 uM after 24 hrs by Griess assay relative to control; format: functional; details: BV-2, 24 h
[4] = Cytotoxicity against mouse BV2 cells assessed as cell viability at 40 uM after 24 hrs by MTT assay relative to control; format: cell-based, BV-2; details: read-out: Activity

Structure (SMILES) | IC50 [1] [µM] | Activity [2] | inhibition at 40 µM [3] [%] | viability at 24 h, 40 µM [4] [%]
COn1c2ccccc2c2cc(COCc3ccc4c(c3)c3cc(Cc5ccc6c(c5)c5ccccc5n6OC)ccc3n4OC)ccc21 | 27.2 | Non-toxic | – | –
COn1c2ccccc2c2cc(COCc3ccc4c(c3)c3ccccc3n4Cc3ccc4c(c3)c3ccccc3n4OC)ccc21 | – | Non-toxic | < 20 | –
COc1cc(Cc2c(O)c(C)cc3c2[nH]c2ccccc23)cc2c1[nH]c1ccccc12 | – | – | – | < 80
COc1cc(Cc2c(C)cc3c([nH]c4ccccc43)c2OC)cc2c1[nH]c1ccccc12 | 11.4 | Non-toxic | – | –
COc1cc(C)c(Cc2ccc3[nH]c4ccccc4c3c2)c2c1[nH]c1ccccc12 | 26.7 | Non-toxic | – | –
COc1cc(Cc2ccc3[nH]c4c(OC)c(O)c(C)cc4c3c2)cc2c1[nH]c1ccccc12 | – | – | – | < 80
COc1cc(Cn2c3ccccc3c3cc(C)c(O)c(OC)c32)cc2c1[nH]c1ccccc12 | – | – | – | < 80
COc1c(O)c(C)cc2c3ccccc3n(Cc3ccc4[nH]c5ccccc5c4c3)c12 | – | – | – | < 80
COc1cc(Cn2c3ccccc3c3cc(C)c(O)cc32)cc2c1[nH]c1ccccc12 | – | – | – | < 80
COc1cc(Cn2c3ccccc3c3cc(C=O)ccc32)cc2c1[nH]c1ccccc12 | 17.9 | Non-toxic | – | –
COc1ccc2c([nH]c3c(-c4c(O)c(C)cc5c4[nH]c4ccccc45)c(O)c(C)cc32)c1C=O | – | – | – | < 80
COc1ccc2c([nH]c3c(-c4c(O)c(C)cc5c4[nH]c4c(C=O)c(OC)ccc45)c(O)c(C)cc32)c1C=O | – | – | – | < 80
COn1c2ccccc2c2cc(COCc3ccc4[nH]c5ccccc5c4c3)ccc21 | 21.9 | Non-toxic | – | –
COc1cc(Cn2c3ccccc3c3cc(CO)cc(OC)c32)cc2c1[nH]c1ccccc12 | 19.3 | Non-toxic | – | –
COc1cc(Cn2c3ccccc3c3cc(C=O)cc(OC)c32)cc2c1[nH]c1ccccc12 | 38.5 | Non-toxic | – | –
COn1c2ccccc2c2cc(COCc3ccc4c(c3)c3ccccc3n4OC)ccc21 | 11.2 | Non-toxic | – | –
COc1cc(Cc2c(C)cc(OC)c3[nH]c4ccccc4c23)cc2c1[nH]c1ccccc12 | 18.6 | Non-toxic | – | –
O=c1c(O)c(-c2ccc(O)c(O)c2)oc2cc(O)cc(O)c12 [QUERCETIN] | 17.4 | – | – | –
